Data as given in patent US6669946B2, “METHOD FOR IDENTIFYING INDIVIDUALS SUFFERING FROM A CELLULAR ABNORMALITY SOME OF WHOSE ABNORMAL CELLS PRESENT COMPLEXES OF HUMAN LEUKOCYTE ANTIGEN TYROSINASE DERIVED PEPTIDES, AND METHODS FOR TREATING SAID INDIVIDUALS” (Ludwig Institute for Cancer Research, priority 1992, dated 2003).
“Also recorded” adds a separate entry of the source.

B1: second gene fragment: fragment from base 1 to base 1092 of SEQ ID NO: 1, not encoding SEQ ID NO: 2 (nucleic acid)
DNA: GACCTTGTGAGGACTAGAGGAAGAATGCTCCTGGCTGTTTTGTACTGCCTGCTGTGGAGTTTCCAGACCTCCGCTGGCCATTTCCCTAGAGCCTGTGTCTCCTCTAAGAACCTGATGGAGAAGGAATGCTGTCCACCGTGGAGCGGGGACAGGAGTCCCTGTGGCCAGCTTTCAGGCAGAGGTTCCTGTCAGAATATCCTTCTGTCCAATGCACCACTTGGGCCTCAATTTCCCTTCACAGGGGTGGATGACCGGGAGTCGTGGCCTTCCGTCTTTTATAATAGGACCTGCCAGTGCTCTGGCAACTTCATGGGATTCAACTGTGGAAACTGCAAGTTTGGCTTTTGGGGACCAAACTGCACAGAGAGACGACTCTTGGTGAGAAGAAACATCTTCGATTTGAGTGCCCCAGAGAAGGACAAATTTTTTGCCTACCTCACTTTAGCAAAGCATACCATCAGCTCAGACTATGTCATCCCCATAGGGACCTATGGCCAAATGAAAAATGGATCAACACCCATGTTTAACGACATCAATATTTATGACCTCTTTGTCTGGATGCATTATTATGTGTCAATGGATGCACTGCTTGGGGGATCTGAAATCTGGAGAGACATTGATTTTGCCCATGAAGCACCAGCTTTTCTGCCTTGGCATAGACTCTTCTTGTTGCGGTGGGAACAAGAAATCCAGAAGCTGACAGGAGATGAAAACTTCACTATTCCATATTGGGACTGGCGGGATGCAGAAAAGTGTGACATTTGCACAGATGAGTACATGGGAGGTCAGCACCCCACAAATCCTAACTTACTCAGCCCAGCATCATTCTTCTCCTCTTGGCAGATTGTCTGTAGCCGATTGGAGGAGTACAACAGCCATCAGTCTTTATGCAATGGAACGCCCGAGGGACCTTTACGGCGTAATCCTGGAAACCATGACAAATCCAGAACCCCAAGGCTCCCCTCTTCAGCTGATGTAGAATTTTGCCTGAGTTTGACCCAATATGAATCTGGTTCCATGGATAAAGCTGCCAATTTCAGCTTTAGAAATACACTGGAAGGATTTGCTAGTCCACTTACTGGGATAGCGGAT
B2: 400 base pair fragment: fragment corresponding to bases 711 to 1152 of SEQ ID NO: 1 (nucleic acid)
DNA: AAACTTCACTATTCCATATTGGGACTGGCGGGATGCAGAAAAGTGTGACATTTGCACAGATGAGTACATGGGAGGTCAGCACCCCACAAATCCTAACTTACTCAGCCCAGCATCATTCTTCTCCTCTTGGCAGATTGTCTGTAGCCGATTGGAGGAGTACAACAGCCATCAGTCTTTATGCAATGGAACGCCCGAGGGACCTTTACGGCGTAATCCTGGAAACCATGACAAATCCAGAACCCCAAGGCTCCCCTCTTCAGCTGATGTAGAATTTTGCCTGAGTTTGACCCAATATGAATCTGGTTCCATGGATAAAGCTGCCAATTTCAGCTTTAGAAATACACTGGAAGGATTTGCTAGTCCACTTACTGGGATAGCGGATGCCTCTCAAAGCAGCATGCACAATGCCTTGCACATCTATATGAATGGAACAATGTCCCAG

Key:
Assay type in all cases: cell-based, human
[1] = tested on: cytolytic T cell clone CTL IVSB; test: 51Cr release assay on peptide-sensitized HLA-A2 presenting cells with CTL IVSB; conditions: SK29-MEL 1.218 and T202LB; peptide 100 μM down to 0.01 μM; E/T ratio 40/1; four hours
Description: (§1) Using the methodologies described in examples 1-5, various fragments of the CDNA were cotransfected with a gene for HLA-A2 in COS-7 cells, and TNF release assays were performed. […] The 400 base fragment used corresponded to bases 711 to 1152 of SEQ ID NO: 1. The amino acid sequence for which the fragment codes was deduced, and this sequence was then compared to the information provided by Hunt et al., Science 255: 1261 (1992), and Falk et al., Nature 351: 290 (1991), the disclosures of which are both incorporated by reference in their entirety. These references discuss consensus sequences for HLA-A2 presented peptides. Specifically, Hunt discusses nonapeptides, where either Leu or Ile is always found at the second position, Leu being the “dominant residue”. The ninth residue is described as always being a residue with an aliphatic hydrocarbon side chain. Val is the dominant residue at this position. […]
(§2) The tyrosinase loss variants, cytolytic T cell clones, and peptides were incubated for one hour in a solution containing ^51Cr, at 37° C., either with or without anti HLA-A2 antibody MA2.1, which was used to stabilize empty HLA-A2 molecules. […] After 30 minutes, effector cells were added at an E/T ratio of 40/1 and four hours later, 10λ of supernatant were collected and radioactivity counted.

CTL clone CTL 210/9 = test: Parallel peptide recognition experiment with CTL 210/9
Description: as §1
as §2, with “counted. […]” for “counted.”

[2] = tested on: cytolytic T cell clone CTL 2/9; test: 51Cr release assay on peptide-sensitized HLA-A2 presenting cells with CTL 2/9; conditions: SK29-MEL 1.218 and T202LB; peptide 100 μM down to 0.01 μM; E/T ratio 40/1; four hours
Description: as §1, §2

CTL IVSB = test: TNF release by CTL IVSB on COS-7 cells cotransfected with HLA-A2 and cDNA pool or fragment; conditions: COS-7 cotransfected with cDNA fragment and HLA-A2 gene
Description: (§3) The amplified plasmids were then transfected into eukaryotic cells. Samples of COS-7 cells were seeded, at 15,000 cells/well into tissue culture flat bottom microwells, in Dulbeco's modified Eagles Medium (“DMEM”) supplemented with 10% fetal calf serum. The cells were incubated overnight at 37° C., medium was removed and then replaced by 30 μl/well of DMEM medium containing 10% Nu serum, 400 μg/ml DEAE-dextran, 100 μM chloroquine, 100 ng of plasmid pcDNA-I/Amp-A2 and 100 ng of DNA of a pool of the cDNA library described supra. Plasmid pcDNA-I/Amp-A2 contains the HLA-A2 gene from SK29-MEL. Following four hours of incubation at 37° C, the medium was removed, and replaced by 50 μl of PBS containing 10% DMSO. This medium was removed after two minutes and replaced by 200 μl of DMEM supplemented with 10% of FCS.
(§4) Following this change in medium, COS cells were incubated for 48 hours at 37° C. Medium was then discarded, and 2000 cells of either of the described CTL clones were added, in 100 μl of Iscove medium containing 10% pooled human serum. When clone 210/9 was used, the medium was supplemented with 25 U/ml of IL-2. Supernatant was removed after 24 hours, and TNF content was determined in an assay on WEHI cells, as described by Traversari et al., Immunogenetics 35: 145-152 (1992), the disclosure of which is incorporated by reference. […]

CTL 210/9 = test: TNF release by CTL 210/9 on COS-7 cells cotransfected with HLA-A2 and cDNA pool or fragment; conditions: COS-7 cotransfected with cDNA fragment and HLA-A2
Description: as §3, §4

Molecule | recognition of complexes of HLA-A2 and peptide by CTL IVSB [1] | recognition of complexes of HLA-A2 and peptide by CTL 210/9 (CTL clone CTL 210/9) | recognition of peptide by CTL 2/9 [2] | TNF release from / recognition by CTL IVSB (CTL IVSB) | recognition by CTL 210/9 of antigen on transfected cells (CTL 210/9)
Tyr Met Asn Gly Thr Met Ser Gln Val (YMNGTMSQV) [SEQ ID NO: 2, tyrosinase derived nonapeptide presented by HLA-A2] | recognition; also recorded: recognized | not recognized; also recorded: did not recognize | not | – | –
B1 | – | – | – | did not | recognized
B2 | – | – | – | provoked TNF release | –
